Results reported in PubChem BioAssay (NCI).
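Five concentrations, 48 hours, 96-well plates. TGI: total growth inhibition.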

Columns and labels:
Assay in all cases: NCI anticancer screen, dose series, 48 h
[1] = tested on: 786-0 renal
[2] = tested on: A549 NSCLC
[3] = tested on: ACHN renal
[4] = tested on: CAKI-1 renal
[5] = tested on: CCRF-CEM leukemia
[6] = tested on: COLO 205 colon
[7] = tested on: DLD-1 colon
[8] = tested on: DMS 114 small cell lung
[9] = tested on: EKVX NSCLC
[10] = tested on: HCC-2998 colon
[11] = tested on: HCT-15 colon
[12] = tested on: HL-60(TB) leukemia
[13] = tested on: HOP-92 NSCLC
[14] = tested on: HT29 colon
[15] = tested on: IGROV1 ovarian
[16] = tested on: K-562 leukemia
[17] = tested on: KM12 colon
[18] = tested on: KM20L2 colon
[19] = tested on: LXFL 529 NSCLC
[20] = tested on: M14 melanoma
[21] = tested on: M19-MEL melanoma
[22] = tested on: MALME-3M melanoma
[23] = tested on: MOLT-4 leukemia
[24] = tested on: NCI-H23 lung
[25] = tested on: NCI-H522 lung
[26] = tested on: OVCAR-3 ovarian
[27] = tested on: OVCAR-4 ovarian
[28] = tested on: OVCAR-5 ovarian
[29] = tested on: OVCAR-8 ovarian
[30] = tested on: RXF 393 renal
[31] = tested on: RXF-631 renal
[32] = tested on: SF-268 CNS
[33] = tested on: SF-295 CNS
[34] = tested on: SF-539 CNS
[35] = tested on: SK-MEL-2 melanoma
[36] = tested on: SK-MEL-28 melanoma
[37] = tested on: SK-MEL-5 melanoma
[38] = tested on: SK-OV-3 ovarian
[39] = tested on: SN12C renal
[40] = tested on: SNB-19 CNS
[41] = tested on: SNB-78 CNS
[42] = tested on: SR leukemia
[43] = tested on: SW-620 colon
[44] = tested on: TK-10 renal
[45] = tested on: U251 CNS
[46] = tested on: UACC-62 melanoma
[47] = tested on: UO-31 renal
[48] = tested on: XF 498 CNS
[49] = tested on: A498 renal
[50] = tested on: DMS 273 small cell lung
[51] = tested on: HCT-116 colon
[52] = tested on: HOP-62 NSCLC
[53] = tested on: NCI-H226 lung
[54] = tested on: RPMI-8226 leukemia
[55] = tested on: SNB-75 CNS
[56] = tested on: UACC-257 melanoma
[57] = tested on: BT-549 breast
[58] = tested on: DU-145 prostate
[59] = tested on: HOP-18 NSCLC
[60] = tested on: HS 578T breast
[61] = tested on: LOX IMVI melanoma
[62] = tested on: MCF7 breast
[63] = tested on: MDA-MB-231 breast
[64] = tested on: MDA-N
[65] = tested on: NCI-H460 lung
[66] = tested on: PC-3 prostate
[67] = tested on: T-47D breast

Question: How did the TGI [1] turn out when CN(C)c1ccc(/C=C(\NC(=O)c2ccccc2)c2nc3ncncc3[nH]2)cc1 was run?
Answer: > 100 µM

Question: What about the TGI [2] of the same molecule?
Answer: > 100 µM

Question: And the TGI [3]?
Answer: > 100 µM

Question: And the TGI [4]?
Answer: > 100 µM

Question: What about the TGI [5] of the same molecule?
Answer: > 100 µM

Question: And the TGI [6]?
Answer: > 100 µM

Question: What about the TGI [7] of the same molecule?
Answer: > 100 µM

Question: What about the TGI [8] of the same molecule?
Answer: > 100 µM

Question: What about the TGI [9] of the same molecule?
Answer: > 100 µM

Question: And the TGI [10]?
Answer: > 100 µM

Question: And the TGI [11]?
Answer: > 100 µM

Question: And the TGI [12]?
Answer: > 100 µM

Question: What about the TGI [13] of the same molecule?
Answer: > 100 µM

Question: And the TGI [14]?
Answer: > 100 µM

Question: And the TGI [15]?
Answer: > 100 µM

Question: And the TGI [16]?
Answer: > 100 µM

Question: And the TGI [17]?
Answer: > 100 µM

Question: And the TGI [18]?
Answer: > 100 µM

Question: What about the TGI [19] of the same molecule?
Answer: > 100 µM

Question: What about the TGI [20] of the same molecule?
Answer: > 100 µM

Question: What about the TGI [21] of the same molecule?
Answer: > 100 µM

Question: What about the TGI [22] of the same molecule?
Answer: > 100 µM

Question: And the TGI [23]?
Answer: > 100 µM

Question: What about the TGI [24] of the same molecule?
Answer: > 100 µM

Question: What about the TGI [25] of the same molecule?
Answer: > 100 µM

Question: And the TGI [26]?
Answer: > 100 µM

Question: And the TGI [27]?
Answer: > 100 µM

Question: What about the TGI [28] of the same molecule?
Answer: > 100 µM

Question: And the TGI [29]?
Answer: > 100 µM

Question: And the TGI [30]?
Answer: > 100 µM

Question: And the TGI [31]?
Answer: > 100 µM

Question: What about the TGI [32] of the same molecule?
Answer: > 100 µM

Question: What about the TGI [33] of the same molecule?
Answer: > 100 µM

Question: What about the TGI [34] of the same molecule?
Answer: > 100 µM

Question: What about the TGI [35] of the same molecule?
Answer: > 100 µM

Question: What about the TGI [36] of the same molecule?
Answer: > 100 µM

Question: What about the TGI [37] of the same molecule?
Answer: > 100 µM

Question: And the TGI [38]?
Answer: > 100 µM

Question: What about the TGI [39] of the same molecule?
Answer: > 100 µM

Question: And the TGI [40]?
Answer: > 100 µM

Question: And the TGI [41]?
Answer: > 100 µM

Question: And the TGI [42]?
Answer: > 100 µM

Question: What about the TGI [43] of the same molecule?
Answer: > 100 µM

Question: What about the TGI [44] of the same molecule?
Answer: > 100 µM

Question: What about the TGI [45] of the same molecule?
Answer: > 100 µM

Question: What about the TGI [46] of the same molecule?
Answer: > 100 µM

Question: What about the TGI [47] of the same molecule?
Answer: > 100 µM

Question: What about the TGI [48] of the same molecule?
Answer: > 100 µM

Question: With O=S1(=O)OCCOS(=O)(=O)C1Br as the molecule, how does the TGI [1] read?
Answer: > 100 µM

Question: What about the TGI [49] of the same molecule?
Answer: > 100 µM

Question: What about the TGI [2] of the same molecule?
Answer: > 100 µM

Question: And the TGI [4]?
Answer: > 100 µM

Question: And the TGI [5]?
Answer: > 100 µM

Question: And the TGI [6]?
Answer: > 100 µM

Question: What about the TGI [7] of the same molecule?
Answer: > 100 µM

Question: What about the TGI [8] of the same molecule?
Answer: > 100 µM

Question: And the TGI [50]?
Answer: > 100 µM

Question: And the TGI [10]?
Answer: > 100 µM

Question: What about the TGI [51] of the same molecule?
Answer: > 100 µM

Question: What about the TGI [12] of the same molecule?
Answer: > 100 µM

Question: And the TGI [52]?
Answer: > 100 µM

Question: And the TGI [13]?
Answer: > 100 µM

Question: And the TGI [14]?
Answer: > 100 µM

Question: And the TGI [15]?
Answer: > 100 µM

Question: And the TGI [16]?
Answer: > 100 µM

Question: And the TGI [17]?
Answer: > 100 µM

Question: And the TGI [19]?
Answer: > 100 µM

Question: What about the TGI [20] of the same molecule?
Answer: > 100 µM

Question: What about the TGI [21] of the same molecule?
Answer: > 100 µM

Question: What about the TGI [22] of the same molecule?
Answer: > 100 µM

Question: And the TGI [23]?
Answer: > 100 µM

Question: What about the TGI [53] of the same molecule?
Answer: > 100 µM

Question: What about the TGI [24] of the same molecule?
Answer: > 100 µM

Question: And the TGI [25]?
Answer: > 100 µM

Question: And the TGI [26]?
Answer: > 100 µM

Question: And the TGI [27]?
Answer: > 100 µM

Question: What about the TGI [29] of the same molecule?
Answer: > 100 µM

Question: What about the TGI [54] of the same molecule?
Answer: > 100 µM

Question: And the TGI [31]?
Answer: > 100 µM

Question: And the TGI [32]?
Answer: > 100 µM

Question: What about the TGI [33] of the same molecule?
Answer: > 100 µM

Question: And the TGI [34]?
Answer: > 100 µM

Question: What about the TGI [35] of the same molecule?
Answer: > 100 µM

Question: What about the TGI [36] of the same molecule?
Answer: > 100 µM

Question: What about the TGI [37] of the same molecule?
Answer: > 100 µM

Question: And the TGI [38]?
Answer: > 100 µM

Question: What about the TGI [39] of the same molecule?
Answer: > 100 µM

Question: What about the TGI [40] of the same molecule?
Answer: > 100 µM

Question: What about the TGI [55] of the same molecule?
Answer: > 100 µM

Question: What about the TGI [41] of the same molecule?
Answer: > 100 µM

Question: What about the TGI [42] of the same molecule?
Answer: > 100 µM

Question: And the TGI [43]?
Answer: > 100 µM

Question: And the TGI [44]?
Answer: > 100 µM

Question: And the TGI [56]?
Answer: > 100 µM

Question: What about the TGI [46] of the same molecule?
Answer: > 100 µM

Question: And the TGI [47]?
Answer: > 100 µM

Question: What does the source list for CC(C)(C)OC(=O)N[C@H]1CC2(C=C(Cl)C(=O)C(Cl)=C2)OC1=O?
Answer: TGI [1]: 28.6 µM; TGI [49]: > 9.94 µM; TGI [2]: > 100 µM; TGI [3]: 28.2 µM; TGI [57]: 29.9 µM; TGI [4]: 26.5 µM; TGI [5]: 5.4 µM; TGI [6]: 14.9 µM; TGI [7]: 13.4 µM; TGI [50]: 32.9 µM; TGI [58]: 78.9 µM; TGI [9]: 40.9 µM; TGI [10]: 31.8 µM; TGI [51]: 28 µM; TGI [11]: 34.9 µM; TGI [12]: 6.53 µM; TGI [59]: 30.4 µM; TGI [52]: > 73.7 µM; TGI [13]: 31.7 µM; TGI [60]: 75.5 µM; TGI [14]: 27.9 µM; TGI [15]: 36 µM; TGI [16]: 7.41 µM; TGI [17]: 32 µM; TGI [18]: 39.4 µM; TGI [61]: 34.5 µM; TGI [19]: 23.8 µM; TGI [20]: 33.7 µM; TGI [21]: 30.9 µM; TGI [22]: 25.9 µM; TGI [62]: 23.3 µM; TGI [63]: 33.8 µM; TGI [64]: 35.5 µM; TGI [23]: 15.7 µM; TGI [53]: > 81.6 µM; TGI [24]: 33.7 µM; TGI [65]: 56.2 µM; TGI [25]: 7.18 µM; TGI [26]: 28.1 µM; TGI [27]: 32.5 µM; TGI [28]: 38.6 µM; TGI [29]: 34.5 µM; TGI [66]: 32.1 µM; TGI [54]: 19.8 µM; TGI [30]: 22.4 µM; TGI [31]: 30.5 µM; TGI [32]: 32.3 µM; TGI [33]: 47.5 µM; TGI [34]: 45.1 µM; TGI [35]: 41.7 µM; TGI [36]: 25 µM; TGI [37]: 38.5 µM; TGI [38]: > 46.4 µM; TGI [39]: 33.3 µM; TGI [40]: > 100 µM; TGI [55]: 41.1 µM; TGI [41]: 40 µM; TGI [42]: > 25 µM; TGI [43]: 19.1 µM; TGI [67]: 40.5 µM; TGI [44]: 33.8 µM; TGI [45]: 45.2 µM; TGI [56]: 21.2 µM; TGI [46]: 30.6 µM; TGI [47]: 38.8 µM; TGI [48]: 34.5 µM
